First the molecules themselves.
T1: Arisaema tortuosum lectin (ATL) (Arisaema tortuosum, UniProt A0A1L6CAS7)
T1 construct: 257-residue precursor, predicted signal peptide 1-23, two domains (DOM1 N26-P132, DOM2 N146-A254) separated by processing; 52 kDa heterotetramer 2 x (A + B)
T1 sequence (A0A1L6CAS7 24-257): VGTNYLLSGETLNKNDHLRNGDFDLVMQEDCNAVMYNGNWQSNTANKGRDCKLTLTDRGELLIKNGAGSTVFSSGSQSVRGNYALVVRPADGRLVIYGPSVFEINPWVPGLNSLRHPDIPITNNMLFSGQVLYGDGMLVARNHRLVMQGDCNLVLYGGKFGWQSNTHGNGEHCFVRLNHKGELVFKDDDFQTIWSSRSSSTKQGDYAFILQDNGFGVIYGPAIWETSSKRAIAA

B1: asialofetuin (natural protein)
chain: IPLDPVAGYKEPACDDPDTEQAALAAVDYINKHLPRGYKHTLNQIDSVKVWPRRPTGEVYDIEIDTLETTCHVLDPTPLANCSVRQQTQHAVEGDCDIHVLKQDGQFSVLFTKCDSSPDSAEDVRKLCPDCPLLAPLNDSRVVHAVEVALATFNAESNGSYLQLVEISRAQFVPLPVSVSVEFAVAATDCIAKEVVDPTKCNLLAEKQYGFCKGSVIQKALGGEDVRVTCTLFQTQPVIPQPQPDGAEAEAPSAVPDAAGPTPSAAGPPVASVVVGPSVVAVPLPLHRAHYDLRHTFSGVASVESSSGEAFHVGKTPIVGQPSIPGGPVRLCPGRIRYFKI
modifications: complex glycoprotein (asialofetuin)

Usually stoichiometry N stands for the number of molecules, sites or subunits per partner or assembly.

The target in the first assay is T1, Arisaema tortuosum lectin (ATL). The assay can be described thus: CFG glycan microarray v5.[…], biotinylated lectin, fluorescence. The conditions noted are these: glycan immobilised via spacer; mean over 10, 1.0 and 0.1 µg/ml lectin. The format is binding.
Take “Fuca1-2Galb1-4 GlcNAcb1-2Mana1-6(Fuca1-2Galb1-4GlcNAcb1-2(Fuca1-2Galb1-4GlcNAcb1-4)Mana1-3)Manb1-4GlcNAcb1-4GlcNAcb-Sp12 [compound 446]”: the “Avg. rank^a” value is reported as 25.9 average rank (from RFU).
Still for that read-out and setting: with “Fuca1-2Galb1-4(Fuca1-3)GlcNAcb1-2Mana1-6(Fuca1-2Galb1-4(Fuca1-3)GlcNAcb1-2Mana1-3)Manb1-4GlcNAcb1-4(Fuca1-6)GlcNAcb-Sp24 [compound 473]” the figure was 20.0 average rank (from RFU); with “Gala1-4Galb1-3GlcNAcb1-2Mana1-6(Gala1-4Galb1-3GlcNAcb1-2Mana1-3)Manb1-4GlcNAcb1-4GlcNAcb-Sp19 [compound 404]”, 70.8 average rank (from RFU); with “Galb1-3GlcNAcb1-2Mana1-6(Galb1-3GlcNAcb1-2Mana1-3)Manb1-4GlcNAcb1-4(Fuca1-6)GlcNAcb-Sp22 [compound 355]”, 24.1 average rank (from RFU).
Still for that read-out and setting: with “Galb1-3GlcNAcb1-2Mana1-6(Galb1-3GlcNAcb1-2Mana1-3)Manb1-4GlcNAcb1-4GlcNAcb-Sp19 [compound 325]” the figure was 57.7 average rank (from RFU); with “Galb1-4GlcNAcb1-2Mana1-6(Galb1-4GlcNAcb1-4(Galb1-4GlcNAcb1-2)Mana1-3)Manb1-4GlcNAcb1-4GlcNAc-Sp21 [compound 370]”, 24.5 average rank (from RFU); with “Galb1-4GlcNAcb1-2Mana1-6(GlcNAcb1-2Mana1-3)Manb1-4GlcNAcb1-4GlcNAc-Sp12 [compound 399]”, 13.8 average rank (from RFU).
Consider “Galb1-4GlcNAcb1-2Mana1-6(Mana1-3)Manb1-4GlcNAcb1-4GlcNAcb-Sp12 [compound 365]”, for which the “Avg. rank^a” value is 59.9 average rank (from RFU).
The same measure, in the same setting: with “Galb1-4GlcNAcb1-3Galb1-4GlcNAcb1-2Mana1-6(Galb1-4GlcNAcb1-3Galb1-4GlcNAcb1-2Mana1-3)Manb1-4GlcNAcb1-4(Fuca1-6)GlcNAcb-Sp24 [compound 576]” the figure was 20.9 average rank (from RFU); with “Galb1-4GlcNAcb1-6(Galb1-4GlcNAcb1-2)Mana1-6(Galb1-4GlcNAcb1-4(Galb1-4GlcNAcb1-2)Mana1-3)Manb1-4GlcNAcb1-4GlcNAcb-Sp21 [compound 388]”, 51.9 average rank (from RFU).
Still for that read-out and setting: with “GlcNAcb1-2Mana1-6(GlcNAcb1-2Mana1-3)Manb1-4GlcNAcb1-4GlcNAcb-Sp13 [compound 53]” the figure was 48.0 average rank (from RFU); with “GlcNAcb1-2Mana1-6(GlcNAcb1-4(GlcNAcb1-2)Mana1-3)Manb1-4GlcNAcb1-4GlcNAc-Sp21 [compound 389]”, 85.5 average rank (from RFU); with “GlcNAcb1-3Galb1-4GlcNAcb1-2Mana1-6(GlcNAcb1-3Galb1-4GlcNAcb1-2Mana1-3)Manb1-4GlcNAcb1-4(Fuca1-6)GlcNAcb-Sp24 [compound 575]”, 20.6 average rank (from RFU).
The same measure, in the same setting: with “Mana1-2Mana1-6(Mana1-3)Mana1-6(Mana1-2Mana1-2Mana1-3)Manb1-4GlcNAcb1-4GlcNAcb-Sp12 [compound 212]” the figure was 35.7 average rank (from RFU); with “Mana1-6(Galb1-4GlcNAcb1-2Mana1-3)Manb1-4GlcNAcb1-4GlcNAcb-Sp12 [compound 352]”, 15.5 average rank (from RFU).
With “Mana1-6(Mana1-2Mana1-3)Mana1-6(Mana1-2Mana1-3)Manb1-4GlcNAcb1-4GlcNAcb-Sp12 [compound 211]”, the “Avg. rank^a” value is 30.4 average rank (from RFU).
Take “Mana1-6(Mana1-3)Mana1-6(Mana1-2Mana1-3)Manb1-4GlcNAcb1-4GlcNAcb-Sp12 [compound 216]”: the “Avg. rank^a” value was 37.3 average rank (from RFU).
Still for that read-out and setting: with “Mana1-6(Mana1-3)Mana1-6(Mana1-3)Manb1-4GlcNAcb1-4GlcNAcb-Sp12 [compound 217]” the figure was 67.9 average rank (from RFU).
On to “Mana1-6(Mana1-3)Manb1-4GlcNAcb1-4(Fuca1-6)GlcNAcb-Sp19 [compound 485]”, for which the “Avg. rank^a” value was 62.5 average rank (from RFU).
“Mana1-6(Mana1-3)Manb1-4GlcNAcb1-4GlcNAcb-Sp13 [compound 51]”: the “Avg. rank^a” value is given as 87.6 average rank (from RFU).

The target of another assay is Arisaema tortuosum lectin (Arisaema tortuosum). The assay can be described thus: ITC; MicroCal iTC200, 18 injections, data fitted to a one site model; ATL dialysed in PBS; which partner was in the syringe is not stated.
Details: not given
Background: In ITC the heat of successive injections is recorded.
For the molecule B1, the stoichiometry N was found to be 0.32.

The target is the same in the next assay. The assay can be described thus: ITC; MicroCal iTC200, 18 injections, fitted with a one site model; ATL dialysed against PBS; set-up as described in ref. 21; temperature not stated.
Details: not given
Molecule B1 returned a Ka of 116000 M⁻¹.

The values above are taken from article PMC6505227, “Exploration of carbohydrate binding behavior and anti-proliferative activities of Arisaema tortuosum lectin” (BMC Molecular Biology, 2019).
